Here are results for seven compounds from patent US20240209028A1, “CNP COMPOUNDS” (priority 2022, published 2024).

What is called solubility is the concentration that dissolves in the medium under given conditions.

In brackets after ≈: the same amount, converted by molar mass. Read-outs that look alike come from different tables or passages of the source. Starred links: 1 amine or outer side, 2 acyl side, 3 side chain; linkers in the order of their positions; H or OH if unused. Positions of bridges follow the written chain, without caps; N, C: chain ends. Residues, ends and D or L forms follow the SMILES beside them. *: point of attachment. C18 diacid = O=C(O)CCCCCCCCCCCCCCCCC(=O)*; γGlu = O=C(O)[C@H](CCC(=O)[*:2])N[*:1]; AEEA = NCCOCCOCC(=O)O

Data set [1] can be described thus: Solubility of CNP compounds at pH 4.0 and pH 6.5. In kind it is physicochemical. Put shortly:
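Freeze-dried peptide was brought to a nominal ≥4000-5000 nmol/mL in 5 mM sodium acetate, 250 mM glycerol (pH 4.0) or in 8 mM sodium phosphate, 23 mg/mL glycerol (pH 6.5 via NaOH titration). Samples were equilibrated at room temperature overnight if undissolved, and supernatant concentration was measured by CAD.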

The nature of data set [2]: PK of CNP compounds after i.v. and s.c. administration to rats. The note with it: male, Sprague Dawley, in vivo, iv, rat, i.v., about 100 nmol/kg; for clearance: read-out: Cl (L/hr/kg), i.v. administration (converted); for half-life: read-out: T½ (hr), i.v. administration (converted). In a few lines: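 Male Sprague Dawley rats (n=4-6) were dosed at 300 nmol/kg s.c. or 100 nmol/kg i.v., formulated at pH 7.4 or 4.0, and sampled up to 72 h. Plasma levels were measured by TF-LC-MS against calibrators from 0.5 to 2000 nM. Non-compartmental PK used dose-normalized AUC for bioavailability, with values given as means.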

Setting [3] is: 8 mM sodium phosphate, 23 mg/mL glycerol, pH 6.5, room temperature, read-out: Solubility at pH 6.5.
[4] abbreviates: 5 mM sodium acetate, 250 mM glycerol, pH 4.0, room temperature, read-out: Solubility at pH 4.0.

For `CC[C@H](C)[C@@H]1NC(=O)[C@H](CCCNC(=N)N)NC(=O)[C@H](CC(=O)O)NC(=O)[C@H](CC(C)C)NC(=O)[C@@H]2CCCN2C(=O)[C@H](CC(C)C)NC(=O)CNC(=O)[C@H](Cc2ccccc2)NC(=O)[C@@H](NC(=O)CNC(=O)[C@H](CCCCN)NC(=O)[C@H](CO)NC(=O)CNC(=O)CNC(=O)[C@H](CCCCN)NC(=O)[C@H](CCCCN)NC(=O)[C@H](CCC(N)=O)NC(=O)[C@H](C)NC(=O)CNC(=O)[C@H](CCC(=O)O)NC(=O)[C@H](Cc2ccc(O)cc2)NC(=O)COCCOCCNC(=O)COCCOCCNC(=O)CC[C@H](NC(=O)CCCCCCCCCCCCCCCCC(=O)O)C(=O)O)CSSC[C@@H](C(=O)O)NC(=O)CNC(=O)[C@H](CC(C)C)NC(=O)CNC(=O)[C@H](CO)NC(=O)[C@H](CC(C)C)NC(=O)[C@H](CO)NC(=O)CNC1=O` [compound 1377] ({C18 diacid-γGlu-AEEA-AEEA}-YEGAQKKGGSKGCFGLPLDRIGSLSGLGC-OH; disulfide 13-29), in data set [1] (setting [3]), the solubility stood at 0.443 mM (≈ 1.6 mg/mL). In data set [2], the clearance was 0.00747 L/h/kg and the half-life is 6.29 h.
For the compound `CC[C@H](C)[C@@H]1NC(=O)[C@H](CCCNC(=N)N)NC(=O)[C@H](CC(=O)O)NC(=O)[C@H](CC(C)C)NC(=O)[C@@H]2CCCN2C(=O)[C@H](CC(C)C)NC(=O)CNC(=O)[C@H](Cc2ccccc2)NC(=O)[C@@H](NC(=O)CNC(=O)[C@H](CO)NC(=O)[C@H](CO)NC(=O)[C@H](CC(C)C)NC(=O)CNC(=O)[C@H](CCCCN)NC(=O)[C@H](CCCCN)NC(=O)[C@H](CCC(N)=O)NC(=O)[C@H](C)NC(=O)CNC(=O)[C@H](CCC(=O)O)NC(=O)[C@H](Cc2ccc(O)cc2)NC(=O)CNC(=O)CNC(=O)CNC(=O)COCCOCCNC(=O)COCCOCCNC(=O)CC[C@H](NC(=O)CCCCCCCCCCCCCCCCC(=O)O)C(=O)O)CSSC[C@@H](C(=O)O)NC(=O)CNC(=O)[C@H](CC(C)C)NC(=O)CNC(=O)[C@H](CO)NC(=O)[C@H](CC(C)C)NC(=O)[C@H](CO)NC(=O)CNC1=O` [compound 1378] ({C18 diacid-γGlu-AEEA-AEEA}-GGGYEGAQKKGLSSGCFGLPLDRIGSLSGLGC-OH; disulfide 16-32), in data set [1] (setting [3]), the solubility was found to be 8.92 mM (≈ 33.9 mg/mL). Besides, in data set [2], the clearance was 0.00926 L/h/kg and the half-life was 5.29 h.
As for `CC[C@H](C)[C@@H]1NC(=O)[C@H](CCCNC(=N)N)NC(=O)[C@H](CC(=O)O)NC(=O)[C@H](CC(C)C)NC(=O)[C@@H]2CCCN2C(=O)[C@H](CC(C)C)NC(=O)CNC(=O)[C@H](Cc2ccccc2)NC(=O)[C@@H](NC(=O)CNC(=O)[C@H](CO)NC(=O)[C@H](CO)NC(=O)[C@H](CC(C)C)NC(=O)CNC(=O)[C@H](CCCCN)NC(=O)[C@H](CCCCN)NC(=O)[C@H](CCC(N)=O)NC(=O)[C@H](C)NC(=O)CNC(=O)[C@H](CCC(=O)O)NC(=O)[C@H](Cc2ccc(O)cc2)NC(=O)[C@H](CO)NC(=O)[C@H](CCCNC(=N)N)NC(=O)[C@H](C)NC(=O)[C@H](CCC(N)=O)NC(=O)[C@@H]2CCCN2C(=O)[C@H](Cc2c[nH]cn2)NC(=O)[C@H](CCC(=O)O)NC(=O)[C@H](CCC(N)=O)NC(=O)COCCOCCNC(=O)COCCOCCNC(=O)CC[C@H](NC(=O)CCCCCCCCCCCCCCCCC(=O)O)C(=O)O)CSSC[C@@H](C(=O)O)NC(=O)CNC(=O)[C@H](CC(C)C)NC(=O)CNC(=O)[C@H](CO)NC(=O)[C@H](CC(C)C)NC(=O)[C@H](CO)NC(=O)CNC1=O` [compound 1379] ({C18 diacid-γGlu-AEEA-AEEA}-QEHPQARSYEGAQKKGLSSGCFGLPLDRIGSLSGLGC-OH; disulfide 21-37; C-terminus assumed), the solubility in data set [1] (setting [3]) stood at 2.67 mM (≈ 12.2 mg/mL). Also, in data set [2], the clearance is 0.0051 L/h/kg and the half-life is 9.8 h.
Take `CC[C@H](C)[C@@H]1NC(=O)[C@H](CCCNC(=N)N)NC(=O)[C@H](CC(=O)O)NC(=O)[C@H](CC(C)C)NC(=O)[C@@H]2CCCN2C(=O)[C@H](CC(C)C)NC(=O)CNC(=O)[C@H](Cc2ccccc2)NC(=O)[C@@H](NC(=O)CNC(=O)[C@H](CCC(N)=O)NC(=O)[C@H](CO)NC(=O)[C@H](CO)NC(=O)CNC(=O)[C@H](Cc2c[nH]cn2)NC(=O)[C@H](Cc2c[nH]cn2)NC(=O)[C@H](CCC(N)=O)NC(=O)[C@H](C)NC(=O)CNC(=O)[C@H](Cc2c[nH]cn2)NC(=O)[C@H](Cc2ccc(O)cc2)NC(=O)[C@H](CCCCN)NC(=O)[C@H](Cc2c[nH]cn2)NC(=O)[C@H](C)NC(=O)[C@H](CCC(N)=O)NC(=O)[C@@H]2CCCN2C(=O)[C@H](Cc2c[nH]cn2)NC(=O)[C@H](CCC(=O)O)NC(=O)[C@H](CCC(N)=O)NC(=O)COCCOCCNC(=O)COCCOCCNC(=O)CC[C@H](NC(=O)CCCCCCCCCCCCCCCCC(=O)O)C(=O)O)CSSC[C@@H](C(=O)O)NC(=O)CNC(=O)[C@H](CC(C)C)NC(=O)CNC(=O)[C@H](CO)NC(=O)[C@H](CC(C)C)NC(=O)[C@H](CO)NC(=O)CNC1=O` [compound 1381] ({C18 diacid-γGlu-AEEA-AEEA}-QEHPQAHKYHGAQHHGSSQGCFGLPLDRIGSLSGLGC-OH; disulfide 21-37): the solubility in data set [1] (setting [4]) was found to be 9 mM (≈ 41.6 mg/mL). Besides, in data set [2], the clearance is 0.00382 L/h/kg and the half-life is 15.2 h.
As for `CC[C@H](C)[C@@H]1NC(=O)[C@H](CCCNC(=N)N)NC(=O)[C@H](CC(=O)O)NC(=O)[C@H](CC(C)C)NC(=O)[C@@H]2CCCN2C(=O)[C@H](CC(C)C)NC(=O)CNC(=O)[C@H](Cc2ccccc2)NC(=O)[C@@H](NC(=O)CNC(=O)[C@H](CO)NC(=O)[C@H](CO)NC(=O)[C@H](CC(C)C)NC(=O)CNC(=O)[C@H](CCCCN)NC(=O)[C@H](CCCCN)NC(=O)[C@H](CCC(N)=O)NC(=O)[C@H](C)NC(=O)CNC(=O)[C@H](CCCCN)NC(=O)[C@H](Cc2ccc(O)cc2)NC(=O)[C@H](CCCCN)NC(=O)[C@H](CCCNC(=N)N)NC(=O)[C@H](C)NC(=O)CC[C@H](NC(=O)CC[C@H](NC(=O)CC[C@H](NC(=O)CC[C@H](NC(=O)CCCCCCCCCCCCCCCCC(=O)O)C(=O)O)C(=O)O)C(=O)O)C(=O)O)CSSC[C@@H](C(=O)O)NC(=O)CNC(=O)[C@H](CC(C)C)NC(=O)CNC(=O)[C@H](CO)NC(=O)[C@H](CC(C)C)NC(=O)[C@H](CO)NC(=O)CNC1=O` [compound 1386] ({C18 diacid-γGlu-γGlu-γGlu-γGlu}-ARKYKGAQKKGLSSGCFGLPLDRIGSLSGLGC-OH; disulfide 16-32), the solubility in data set [1] (setting [3]) amounted to 0.49 mM (≈ 2 mg/mL). Moreover, in data set [2], the clearance was 0.00605 L/h/kg and the half-life is 8.16 h.
With `CC[C@H](C)[C@@H]1NC(=O)[C@H](CCCNC(=N)N)NC(=O)[C@H](CC(=O)O)NC(=O)[C@H](CC(C)C)NC(=O)[C@@H]2CCCN2C(=O)[C@H](CC(C)C)NC(=O)CNC(=O)[C@H](Cc2ccccc2)NC(=O)[C@@H](NC(=O)CNC(=O)[C@H](CO)NC(=O)[C@H](CO)NC(=O)[C@H](CC(C)C)NC(=O)CNC(=O)[C@H](CCCCN)NC(=O)[C@H](CCCCN)NC(=O)[C@H](CCC(N)=O)NC(=O)[C@H](C)NC(=O)CNC(=O)[C@H](CCCCN)NC(=O)[C@H](Cc2ccc(O)cc2)NC(=O)[C@H](CCCCN)NC(=O)[C@H](CCCNC(=N)N)NC(=O)[C@H](C)NC(=O)[C@H](CCC(N)=O)NC(=O)[C@@H]2CCCN2C(=O)[C@H](Cc2c[nH]cn2)NC(=O)[C@H](CCC(=O)O)NC(=O)[C@H](CCC(N)=O)NC(=O)CC[C@H](NC(=O)CC[C@H](NC(=O)CC[C@H](NC(=O)CC[C@H](NC(=O)CCCCCCCCCCCCCCCCC(=O)O)C(=O)O)C(=O)O)C(=O)O)C(=O)O)CSSC[C@@H](C(=O)O)NC(=O)CNC(=O)[C@H](CC(C)C)NC(=O)CNC(=O)[C@H](CO)NC(=O)[C@H](CC(C)C)NC(=O)[C@H](CO)NC(=O)CNC1=O` [compound 1389] ({C18 diacid-γGlu-γGlu-γGlu-γGlu}-QEHPQARKYKGAQKKGLSSGCFGLPLDRIGSLSGLGC-OH; disulfide 21-37), in data set [1] (setting [4]), the solubility was 8.9 mM (≈ 41.8 mg/mL). Further, the solubility in data set [1] (setting [3]) turned out to be 0.426 mM (≈ 2 mg/mL). Moreover, in data set [2], the clearance was 0.00415 L/h/kg and the half-life was 14.6 h.
For the compound `CC[C@H](C)[C@@H]1NC(=O)[C@H](CCCNC(=N)N)NC(=O)[C@H](CC(=O)O)NC(=O)[C@H](CC(C)C)NC(=O)[C@@H]2CCCN2C(=O)[C@H](CC(C)C)NC(=O)CNC(=O)[C@H](Cc2ccccc2)NC(=O)[C@@H](NC(=O)CNC(=O)[C@H](CO)NC(=O)[C@H](CO)NC(=O)[C@H](CC(C)C)NC(=O)CNC(=O)[C@H](CCCCN)NC(=O)[C@H](CCCCN)NC(=O)[C@H](CCC(N)=O)NC(=O)[C@H](C)NC(=O)CNC(=O)[C@H](CCC(=O)O)NC(=O)[C@H](Cc2ccc(O)cc2)NC(=O)COCCOCCNC(=O)COCCOCCNC(=O)COCCOCCNC(=O)COCCOCCNC(=O)CC[C@H](NC(=O)CCCCCCCCCCCCCCCCC(=O)O)C(=O)O)CSSC[C@@H](C(=O)O)NC(=O)CNC(=O)[C@H](CC(C)C)NC(=O)CNC(=O)[C@H](CO)NC(=O)[C@H](CC(C)C)NC(=O)[C@H](CO)NC(=O)CNC1=O` [compound 1392] ({C18 diacid-γGlu-AEEA-AEEA-AEEA-AEEA}-YEGAQKKGLSSGCFGLPLDRIGSLSGLGC-OH; disulfide 13-29), the solubility in data set [1] (setting [3]) amounted to 9.88 mM (≈ 38.7 mg/mL). For the same compound, in data set [2], the clearance is 0.00799 L/h/kg and the half-life is 5.72 h.
